Like-named read-outs stand apart in the source and are kept apart here.
How the values were obtained:
Assay type in all cases: biochemical
[1] = molecular target: T1, PTPN2 (TC-PTP); GST-TC-PTP catalytic domain (Homo sapiens, UniProt P17706); experiment: DiFMUP fluorescence phosphatase assay
T1 sequence (P17706 1-314 limits assumed): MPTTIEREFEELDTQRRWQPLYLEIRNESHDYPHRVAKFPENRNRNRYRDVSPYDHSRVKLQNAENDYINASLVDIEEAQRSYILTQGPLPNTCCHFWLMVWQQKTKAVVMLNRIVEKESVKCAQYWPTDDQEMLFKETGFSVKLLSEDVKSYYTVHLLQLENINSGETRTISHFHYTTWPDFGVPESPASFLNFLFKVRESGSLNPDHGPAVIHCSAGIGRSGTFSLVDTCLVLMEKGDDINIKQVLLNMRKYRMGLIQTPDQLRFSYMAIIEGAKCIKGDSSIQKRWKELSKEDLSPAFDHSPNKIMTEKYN

[2] = molecular target: T2, PTPN1 (PTP1B); GST-PTP1B catalytic domain (Homo sapiens, UniProt P18031); experiment: DiFMUP fluorescence phosphatase assay
T2 sequence (P18031 1-321 limits assumed): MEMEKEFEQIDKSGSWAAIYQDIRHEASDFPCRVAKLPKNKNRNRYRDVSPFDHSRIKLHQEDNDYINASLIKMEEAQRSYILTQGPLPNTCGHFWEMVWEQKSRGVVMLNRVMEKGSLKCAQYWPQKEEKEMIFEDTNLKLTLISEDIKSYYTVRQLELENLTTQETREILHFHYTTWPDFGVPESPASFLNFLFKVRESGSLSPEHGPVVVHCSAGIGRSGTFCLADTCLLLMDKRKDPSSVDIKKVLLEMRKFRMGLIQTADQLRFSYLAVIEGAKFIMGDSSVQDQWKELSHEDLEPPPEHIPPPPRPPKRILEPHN

[3] = molecular target: T3, PTPN9 (MEG2) (Homo sapiens, UniProt P43378); experiment: in vitro phosphatase activity curve
T3 sequence (P43378 1-593): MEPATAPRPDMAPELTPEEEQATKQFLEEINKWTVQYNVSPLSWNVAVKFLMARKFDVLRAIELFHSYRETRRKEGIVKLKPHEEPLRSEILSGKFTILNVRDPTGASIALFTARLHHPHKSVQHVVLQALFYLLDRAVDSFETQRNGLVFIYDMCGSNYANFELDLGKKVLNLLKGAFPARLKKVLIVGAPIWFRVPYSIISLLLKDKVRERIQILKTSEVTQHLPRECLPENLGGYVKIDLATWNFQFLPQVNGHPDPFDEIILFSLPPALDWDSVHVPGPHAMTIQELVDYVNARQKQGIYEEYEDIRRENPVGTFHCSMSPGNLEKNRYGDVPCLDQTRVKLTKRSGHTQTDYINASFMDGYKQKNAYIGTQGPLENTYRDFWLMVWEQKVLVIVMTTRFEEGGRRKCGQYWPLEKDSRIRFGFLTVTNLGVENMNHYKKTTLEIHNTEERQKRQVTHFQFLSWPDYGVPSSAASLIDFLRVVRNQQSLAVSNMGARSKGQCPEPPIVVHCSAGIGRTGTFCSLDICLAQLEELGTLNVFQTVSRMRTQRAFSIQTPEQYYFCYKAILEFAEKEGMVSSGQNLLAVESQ

Compound | IC50 ([1]; 50 mM HEPES pH 7.0, 3 mM DTT, 1 mg/mL BSA, 25 °C, DiFMUP at Km) [nM] | IC50 [2] [nM] | IC50 [3] [nM] | IC50 [1] [nM]
N#Cc1ccc2cc(Br)c(C(F)(F)P(=O)(O)O)cc2c1 [L598] | 489 |  |  | 
N#CCc1ccc2cc(Br)c(C(F)(F)P(=O)(O)O)cc2c1 [KQ791] |  | 188 | 7200 | 188
